Reference: US10213415B2, “Compounds as opioid receptor modulators” (JANSSEN PHARMACEUTICA NV, priority 2004, dated 2019)
Values joined by “and” are separate entries in the source; they are usually repeats but may differ in a detail not shown here. Identical values can stand only once.

What was measured:
Assay type in all cases: biochemical
[1] = target: T1, mu opioid receptor (CHO-hMOR cell membranes) (Homo sapiens, UniProt P35372); assay: Mu Opioid Receptor Functional Assay: [35S]GTPγS Binding in CHO-hMOR Cell Membranes, Versions 1 and 2; conditions: for MOR GTP binding assay_v1 (% I): version 1, % inhibition of agonist-stimulated GTPγS binding; for MOR GTP assay_v1 % of Basal: version 1, basal binding = 100%; for MOR GTP binding assay_v2 (% I): version 2, % inhibition of agonist-stimulated GTPγS binding; for EC50: version 2, read-out: MOR GTP binding assay v2 EC50
T1 construct: purchased Receptor Biology, Inc. (Baltimore, Md.); host or cells: CHO cells (recombinant expression)
T1 sequence (P35372 whole entry): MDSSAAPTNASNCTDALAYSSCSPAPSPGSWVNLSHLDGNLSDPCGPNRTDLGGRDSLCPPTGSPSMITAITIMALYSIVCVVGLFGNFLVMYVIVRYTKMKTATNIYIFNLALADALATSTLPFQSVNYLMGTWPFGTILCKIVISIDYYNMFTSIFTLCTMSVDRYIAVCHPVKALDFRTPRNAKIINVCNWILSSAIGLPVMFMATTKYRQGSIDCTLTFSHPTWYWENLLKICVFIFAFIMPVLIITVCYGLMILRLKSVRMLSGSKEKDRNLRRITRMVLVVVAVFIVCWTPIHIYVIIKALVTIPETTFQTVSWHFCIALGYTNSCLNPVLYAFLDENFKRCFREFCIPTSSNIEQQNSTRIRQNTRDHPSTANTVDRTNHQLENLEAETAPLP
In short: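 CHO-hMOR membranes (10 μg/ml) on WGA SPA beads, preincubated 45 min at 25 °C, then incubated with 0.5 nM [35S]GTPγS in HEPES pH 7.6, 5 mM MgCl2, 100 mM NaCl, 1 mM DTT, 1 mM EDTA. Non-specific binding with 10 μM unlabeled GTPγS; agonist EC50 from concentration-response, antagonism as inhibition of 1 μM SNC80-stimulated binding.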

[2] = target: T2, delta opioid receptor (CHO-hδ cell membranes) (Homo sapiens, UniProt P41143); assay: Delta Opioid Receptor Functional Assay: [35S]GTPγS Binding in CHO-hδ Cell Membranes, Version 1; conditions: read-out: DOR GTP-binding Assay_v1 EC50
T2 construct: purchased Receptor Biology, Inc. (Baltimore, Md.); host or cells: CHO cells (recombinant expression)
T2 sequence (P41143 whole entry): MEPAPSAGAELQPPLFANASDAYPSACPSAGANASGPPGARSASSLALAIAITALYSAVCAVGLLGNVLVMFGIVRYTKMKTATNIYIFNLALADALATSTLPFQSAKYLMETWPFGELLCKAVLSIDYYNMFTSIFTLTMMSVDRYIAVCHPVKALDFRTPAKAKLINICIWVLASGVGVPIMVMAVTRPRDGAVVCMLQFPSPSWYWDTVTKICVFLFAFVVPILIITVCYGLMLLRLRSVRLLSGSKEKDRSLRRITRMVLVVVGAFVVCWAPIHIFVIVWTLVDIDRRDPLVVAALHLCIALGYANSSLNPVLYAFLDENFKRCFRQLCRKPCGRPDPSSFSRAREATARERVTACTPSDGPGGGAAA
Procedure: CHO-hδ cell membranes were purchased from Receptor Biology, Inc. (Baltimore, Md.). 10 mg/ml of membrane protein suspended in 10 mM TRIS-HC pH 7.2, 2 mM EDTA, 10% sucrose.
Membranes were maintained at 4-8° C. A portion (1 ml) of membranes was added into 15 mL cold binding assay buffer. The assay buffer contained 50 mM HEPES, pH 7.6, 5 mM MgCl2, 100 mM NaCl, 1 mM DTT and 1 mM EDTA. The membrane suspension was homogenized with a Polytron for 2 times and centrifuged at 3000 rpm for 10 min. The supernent was then centrifuged at 18,000 rpm for 20 min. The pellet was saved in a tube and 10 ml assay buffer was added into the tube. The pellet and buffer were mixed with a Polytron.
The pellet membranes (20 μg/ml) were preincubated with SPA (10 mg/ml) at 25° C. for 45 min in the assay buffer. The SPA (5 mg/ml) coupled with membranes (10 μg/ml) was then incubated with 0.5 nM [^35S]GTPγS in the same HEPES buffer containing 50 μM GDP in total volume of 200 μl. Increasing concentrations of receptor agonists were used to stimulate [^35S]GTPγS binding. The basal binding was tested in the absent agonists and no specific binding was tested in the present 10 μM unlabeled GTPγS. The data were analyzed on a Top counter.
Data The % of Basal=(stimulate−non specific)*100/(basal−non specific). EC50 values were calculated using a Prism program.

[3] = target: T3, delta opioid receptor (NG108-15 cell membranes) (Mus musculus, UniProt P32300); assay: Delta Opioid Receptor Functional Assay: [35S]GTPγS Binding in NG108-15 Cell Membranes, Version 2; conditions: NG108-15 cell membranes, version 2; for EC50: [35S]GTPγS, read-out: DOR GTP-binding Assay_v2_ EC50; for DOR GTP-binding Assay v2 (% I): % inhibition of agonist-stimulated GTPγS binding
T3 construct: NG108-15 cell membranes were purchased from Applied Cell Sciences (Rockville, Md.); host or cells: NG108-15 cells (membranes purchased)
T3 sequence (P32300 whole entry): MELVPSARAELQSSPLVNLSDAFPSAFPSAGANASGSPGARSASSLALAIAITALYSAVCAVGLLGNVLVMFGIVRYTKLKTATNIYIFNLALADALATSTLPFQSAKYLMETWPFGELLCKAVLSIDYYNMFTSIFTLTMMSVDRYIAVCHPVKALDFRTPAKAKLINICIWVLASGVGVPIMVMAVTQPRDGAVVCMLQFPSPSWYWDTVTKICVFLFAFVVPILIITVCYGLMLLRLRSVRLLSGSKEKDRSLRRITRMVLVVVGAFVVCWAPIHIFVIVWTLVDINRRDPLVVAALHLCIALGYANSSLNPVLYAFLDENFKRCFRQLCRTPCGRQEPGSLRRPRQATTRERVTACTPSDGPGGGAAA
In short: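 SPA-coupled NG108-15 membranes (37.5 μg/ml) were incubated with 0.1 nM [35S]GTPγS and 100 μM GDP in Tris pH 7.6, 5 mM MgCl2, 100 mM NaCl, with increasing agonist concentrations; 10 μM unlabeled GTPγS defined nonspecific binding. EC50 from % of basal; inhibition as % of 1 μM SNC80 stimulation.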

| Structure (SMILES) | MOR GTP binding assay_v1 (% I) [1] | MOR GTP assay_v1 % of Basal [1] | EC50 [2] | EC50 [3] | DOR GTP-binding Assay v2 (% I) [3] | MOR GTP binding assay_v2 (% I) [1] | EC50 [1] |
| --- | --- | --- | --- | --- | --- | --- | --- |
| Cc1cc(C(N)=O)cc(C)c1C[C@H](N)C(=O)N(Cc1ccccc1)[C@@H](C)c1nc(-c2ccccc2)c[nH]1 [Cpd 114] | 13.20% | 717.59% | 35 nM | – | – | – | – |
| Cc1cc(O)cc(C)c1C[C@H](N)C(=O)N(Cc1nc(-c2ccc(F)cc2)c(C)[nH]1)C(C)C [Cpd 163] | 1.00% | – | 21 nM | – | – | – | – |
| Cc1cc(O)cc(C)c1C[C@H](N)C(=O)N(Cc1nc(-c2cc(C(F)(F)F)cc(C(F)(F)F)c2)c(C)[nH]1)C(C)C [Cpd 164] | 1.00% | – | 2500 nM | – | – | – | – |
| Cc1ccccc1-c1nc(CN(C(=O)[C@@H](N)Cc2c(C)cc(O)cc2C)C(C)C)[nH]c1C [Cpd 165] | 1.00% | – | 231 nM | – | – | – | – |
| Cc1cc(O)cc(C)c1C[C@H](N)C(=O)N(Cc1nc(-c2ccccc2)c(C)[nH]1)C(C)C [Cpd 166] | 1.00% | – | 21 nM and 71 nM | – | – | – | – |
| Cc1cc(O)cc(C)c1C[C@H](N)C(=O)N(Cc1nc(-c2ccccc2)c[nH]1)C1CCCCC1 [Cpd 190] | 70.00% | – | 3830 nM | – | – | – | – |
| Cc1cc(O)cc(C)c1C[C@H](N)C(=O)N(Cc1nc(-c2ccccc2)c[nH]1)CC1CC1 [Cpd 192] | 30.00% | 383.00% | 76 nM | – | – | – | – |
| Cc1cc(O)cc(C)c1C[C@H](N)C(=O)N(Cc1nc(-c2ccccc2)c[nH]1)C(C)C [Cpd 194] | 1.00% | 558.00% | 189 nM | – | – | – | – |
| Cc1cc(O)cc(C)c1C[C@H](N)C(=O)N(C)Cc1nc(-c2ccccc2)c[nH]1 [Cpd 199] | 11.00% | 465.00% | 217 nM | – | – | – | – |
| C[C@H](c1nc(-c2ccccc2)c[nH]1)N(C)C(=O)[C@@H](N)Cc1ccc(C(N)=O)cc1 [Cpd 203] | 20.00% | 331.00% | 515 nM | – | – | – | – |
| Cc1cc(O)cc(C)c1C[C@H](N)C(=O)N(C)[C@@H](C)c1nc(Cc2ccccc2)c[nH]1 [Cpd 205] | 1.00% | 566.00% | 32 nM | – | – | – | – |
| Cc1cc(O)cc(C)c1C[C@H](N)C(=O)N(C)[C@H](C)c1nc(-c2ccccc2)c[nH]1 [Cpd 206] | 1.00% | 446.00% | 37 nM | – | – | – | – |
| Cc1cc(O)cc(C)c1C[C@H](N)C(=O)N(C)[C@@H](C)c1nc(-c2ccccc2)c[nH]1 [Cpd 207] | – | – | 8.65 nM and 12 nM | – | – | – | – |
| CCN(C(=O)[C@@H](N)Cc1ccc(O)cc1)[C@H](C)c1nc(-c2ccccc2)c[nH]1 [Cpd 214] | 3.00% | 295.00% | 26000 nM | – | – | – | – |
| CCN(C(=O)[C@@H](N)Cc1ccc(O)cc1)[C@@H](C)c1nc(-c2ccccc2)c[nH]1 [Cpd 215] | 1.00% | 606.00% | 1060 nM | – | – | – | – |
| CCN(C(=O)[C@@H](N)Cc1c(C)cc(O)cc1C)[C@@H](C)c1nc(-c2ccccc2)c[nH]1 [Cpd 216] | 1.00% | 666.00% | 16 nM | – | – | – | – |
| CCN(C(=O)[C@@H](N)Cc1c(C)cc(O)cc1C)[C@H](C)c1nc(-c2ccccc2)c[nH]1 [Cpd 217] | 1.00% | 599.00% | 82 nM | – | – | – | – |
| Cc1cc(O)cc(C)c1C[C@H](N)C(=O)N(Cc1ccccc1)[C@@H](C)c1nc(-c2ccccc2)c[nH]1 [Cpd 218] | 1.00% | 599.00% | 20 nM | – | – | – | – |
| C[C@@H](c1nc(-c2ccccc2)c[nH]1)N(Cc1ccccc1)C(=O)[C@@H](N)Cc1ccc(O)cc1 [Cpd 219] | 1.00% | 611.00% | 3560 nM | – | – | – | – |
| C[C@H](c1nc(-c2ccccc2)c[nH]1)N(Cc1ccccc1)C(=O)[C@@H](N)Cc1ccc(O)cc1 [Cpd 221] | 13.00% | 427.00% | 308 nM | – | – | – | – |
| CC(C)N(C(=O)[C@@H](N)Cc1ccc(O)cc1)[C@@H](C)c1nc(-c2ccccc2)c[nH]1 [Cpd 225] | 1.00% | 657.00% | 2190 nM | – | – | – | – |
| COc1ccc(CN(C(=O)[C@@H](N)Cc2ccc(O)cc2)[C@@H](C)c2nc(-c3ccccc3)c[nH]2)cc1C(=O)O [Cpd 261] | – | – | – | 21 nM | 30.04% | 5.88% | 17 nM |
| COC(=O)c1ccc(CN(C(=O)[C@@H](N)Cc2ccc(C(N)=O)cc2)[C@@H](C)c2nc(-c3ccccc3)c[nH]2)o1 [Cpd 303] | – | – | – | 95 nM | 23.85% | 1.00% | 30 nM |
